Dose and IC50 data for 2 compounds are collected here from ChEMBL document CHEMBL1122576 (J Med Chem, 1984).

Assay [1] has as its system Rattus norvegicus. The experiment in a line: Dose that decreased galactitol accumulation by 50% in the sciatic nerve in the galactosemic rat model after administration for 4 days in the diet. The format is functional.
The subject of assay [2] is Rattus norvegicus. The experiment in a line: Dose that decreased sorbitol accumulation by 50% in the sciatic nerve in the galactosemic rat model after administration for 3 weeks in the diet. The class given is functional.
Assay [3] has as its target Aldo-keto reductase family 1 member B1 (Bos taurus, UniProt P16116). The experiment in a line: Inhibition of bovine lens aldose reductase with DL-glyceraldehyde as substrate.
The test system of assay [4] is Rattus norvegicus. Put plainly: Dose that decreased galactitol accumulation by 50% in the sciatic nerve in the galactosemic rat model after administration for 4 days in the diet; 7.3+/-2.3 mg/(kg day). The class given is functional.
The subject of assay [5] is Rattus norvegicus. Put plainly: Dose that decreased sorbitol accumulation by 50% in the sciatic nerve in the galactosemic rat model after administration for 3 weeks in the diet; 4.8+/- 2.4 mg/(kg day). The format is functional.

As for `O=C(O)CN1C(=O)c2cccc3cccc(c23)C1=O` [ALRESTATIN], the Dose in the assay on Rattus norvegicus [1] was roughly 900 mg/kg/day; with Rattus norvegicus [2], roughly 1000 mg/kg/day. In addition, in assay [3], the IC50 (usually the midpoint of a concentration-inhibition curve) came out at 2700 nM.
For the compound `COc1ccc2c(C(=S)N(C)CC(=O)O)cccc2c1C(F)(F)F` [TOLRESTAT], the Dose in the assay on Rattus norvegicus [4] worked out at 7.3 mg/kg/day; in the assay with Rattus norvegicus [5], 4.8 mg/kg/day.
